Experimental data reported in ChEMBL document CHEMBL1201862, “PubChem BioAssay data set” (2004).
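These data come from cells grown in 96-well plates and exposed to compound for 48 hours at five concentrations. Abbreviation: GI50, concentration required for 50% inhibition of growth.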 Calls of active or inactive are those of the source. Cut-off read from the data, not from the text of the source: active = GI50 up to about 1.1 µM and inactive = higher.

Experiments:
Assay in all cases: inhibition of tumour cell growth, NCI panel, 48 h
HOP-92 = system: HOP-92
Hs-578T = system: Hs-578T
SK-MEL-28 = system: SK-MEL-28
BT-549 = system: BT-549
A498 = system: A498
CCRF-CEM = system: CCRF-CEM
SW-620 = system: SW-620
HCT-116 = system: HCT-116
NCI-H522 = system: NCI-H522
NCI-H460 = system: NCI-H460
NCI/ADR-RES = system: NCI/ADR-RES
SF-295 = system: SF-295
K562 = system: K562
HCT-15 = system: HCT-15
MDA-MB-435 = system: MDA-MB-435
DU-145 = system: DU-145
NCI-H23 = system: NCI-H23
HCC 2998 = system: HCC 2998
LOX IMVI = system: LOX IMVI
M14 = system: M14
SK-MEL-2 = system: SK-MEL-2
UO-31 = system: UO-31
786-0 = system: 786-0
U-251 = system: U-251
Malme-3M = system: Malme-3M
MCF7 = system: MCF7
T47D = system: T47D
OVCAR-4 = system: OVCAR-4
SNB-19 = system: SNB-19
COLO 205 = system: COLO 205
SN12C = system: SN12C
UACC-257 = system: UACC-257
SK-OV-3 = system: SK-OV-3
MOLT-4 = system: MOLT-4
TK-10 = system: TK-10
MDA-MB-231 = system: MDA-MB-231
ACHN = system: ACHN
SF-539 = system: SF-539
NCI-H226 = system: NCI-H226
KM12 = system: KM12
A549 = system: A549
CAKI-1 = system: CAKI-1
MDA-N = system: MDA-N
RPMI-8226 = system: RPMI-8226
SK-MEL-5 = system: SK-MEL-5
SR = system: SR
UACC-62 = system: UACC-62
OVCAR-8 = system: OVCAR-8
OVCAR-3 = system: OVCAR-3
SF-268 = system: SF-268
RXF 393 = system: RXF 393
HOP-62 = system: HOP-62
HL-60 = system: HL-60
IGROV-1 = system: IGROV-1
HT-29 = system: HT-29
EKVX = system: EKVX
PC-3 = system: PC-3
SNB-75 = system: SNB-75
OVCAR-5 = system: OVCAR-5

Measured: GI50

COc1ccc(N2C(=O)/C(=C\c3cc(OC)c(OC)c(OC)c3)S(=O)(=O)C2c2ccccc2)cc1 (centres undefined)
27.7 µM: HCT-15
inactive: HOP-92 41.7 µM | Hs-578T 58.3 µM | SK-MEL-28 50.7 µM | BT-549 22 µM | A498 > 100 µM | CCRF-CEM 39.2 µM | SW-620 48.6 µM | HCT-116 18.8 µM | NCI-H522 23.1 µM | NCI-H460 47.6 µM | NCI/ADR-RES 17.2 µM | SF-295 21.2 µM | K562 12.7 µM | MDA-MB-435 21.8 µM | DU-145 71.3 µM | NCI-H23 25.8 µM | HCC 2998 89.3 µM | LOX IMVI 20 µM | M14 19.4 µM | SK-MEL-2 8.55 µM | UO-31 14.8 µM | 786-0 43.5 µM | U-251 11.3 µM | Malme-3M 47.4 µM | MCF7 30.2 µM | T47D 24.7 µM | OVCAR-4 42 µM | SNB-19 18.5 µM | COLO 205 4.39 µM | SN12C > 100 µM | UACC-257 52.7 µM | SK-OV-3 37.5 µM | MOLT-4 28.5 µM | TK-10 > 100 µM | MDA-MB-231 34.8 µM | ACHN 48.3 µM | SF-539 37.9 µM | NCI-H226 30.8 µM | KM12 29.2 µM | A549 26.2 µM | CAKI-1 84.7 µM | MDA-N 13.9 µM | RPMI-8226 12.2 µM | SK-MEL-5 14.2 µM | SR 11 µM | UACC-62 21.6 µM | OVCAR-8 25.2 µM | OVCAR-3 27 µM | SF-268 52 µM | RXF 393 15.7 µM | HOP-62 48.8 µM

O=c1c2ccccc2[nH]c2c(Cl)cc(Cl)c(N3CCCCC3)c12
inactive: SK-MEL-28 58.5 µM | BT-549 43.5 µM | A498 28.3 µM | CCRF-CEM > 10 µM | HL-60 37.5 µM | SW-620 35.4 µM | HCT-116 46.3 µM | NCI-H522 22.1 µM | NCI/ADR-RES 25.6 µM | SF-295 32.4 µM | K562 > 10 µM | MDA-MB-435 22.8 µM | NCI-H23 24.1 µM | IGROV-1 18.6 µM | HCC 2998 31.9 µM | LOX IMVI 41.6 µM | M14 27.3 µM | SK-MEL-2 21.7 µM | UO-31 20 µM | 786-0 > 10 µM | HT-29 16 µM | EKVX 28.9 µM | U-251 24.4 µM | MCF7 20.7 µM | T47D 50.6 µM | OVCAR-4 71.6 µM | SNB-19 34.6 µM | COLO 205 37.8 µM | SN12C 22.1 µM | UACC-257 39.1 µM | SK-OV-3 62.4 µM | MOLT-4 26.4 µM | TK-10 39.7 µM | MDA-MB-231 33.6 µM | PC-3 35.5 µM | ACHN 23 µM | SF-539 21.9 µM | SNB-75 30.1 µM | NCI-H226 23.7 µM | KM12 19.1 µM | A549 33.2 µM | CAKI-1 30.5 µM | MDA-N 24.3 µM | RPMI-8226 29.9 µM | SK-MEL-5 34.3 µM | OVCAR-5 34.5 µM | SR 36.5 µM | UACC-62 > 10 µM | OVCAR-8 40 µM | OVCAR-3 31.1 µM | HOP-62 34 µM
44.8 µM: HCT-15
